# Measurements as given in patent US20230257396A1, “MACROCYCLES AND THEIR USE” (BLOSSOMHILL THERAPEUTICS, INC., priority 2020, published 2023).
# Positions count from the first letter of the chain named.
# Key:
# Assay in all cases: KINOMEscan kinase binding assay (Eurofins/DiscoveRx), % Ctrl
# kinases [1] = target: T1, kinases (Homo sapiens, UniProt P00533, G719C)
# T1 construct: purchased Eurofins/DiscoveRx; host or cells: E. coli BL21-derived host (T7 phage display) for most kinases; HEK-293 for the rest
# Summary of the method: (§1)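 Competition binding: DNA- or phage-tagged kinases (T7 phage in E. coli BL21, or HEK-293-expressed) with immobilized biotinylated ligand beads and test compound, 1 h at room temperature. Bead-bound kinase eluted and quantified by qPCR; % Ctrl = (compound − positive control)/(negative control − positive control) ×100 at a single compound concentration.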
# kinases [2] = target: T2, kinases (Homo sapiens, UniProt P36888, K663Q)
# T2 construct: purchased Eurofins/DiscoveRx; host or cells: E. coli BL21-derived host (T7 phage display) for most kinases; HEK-293 for the rest
# T2 sequence (P36888 27-993 K663Q): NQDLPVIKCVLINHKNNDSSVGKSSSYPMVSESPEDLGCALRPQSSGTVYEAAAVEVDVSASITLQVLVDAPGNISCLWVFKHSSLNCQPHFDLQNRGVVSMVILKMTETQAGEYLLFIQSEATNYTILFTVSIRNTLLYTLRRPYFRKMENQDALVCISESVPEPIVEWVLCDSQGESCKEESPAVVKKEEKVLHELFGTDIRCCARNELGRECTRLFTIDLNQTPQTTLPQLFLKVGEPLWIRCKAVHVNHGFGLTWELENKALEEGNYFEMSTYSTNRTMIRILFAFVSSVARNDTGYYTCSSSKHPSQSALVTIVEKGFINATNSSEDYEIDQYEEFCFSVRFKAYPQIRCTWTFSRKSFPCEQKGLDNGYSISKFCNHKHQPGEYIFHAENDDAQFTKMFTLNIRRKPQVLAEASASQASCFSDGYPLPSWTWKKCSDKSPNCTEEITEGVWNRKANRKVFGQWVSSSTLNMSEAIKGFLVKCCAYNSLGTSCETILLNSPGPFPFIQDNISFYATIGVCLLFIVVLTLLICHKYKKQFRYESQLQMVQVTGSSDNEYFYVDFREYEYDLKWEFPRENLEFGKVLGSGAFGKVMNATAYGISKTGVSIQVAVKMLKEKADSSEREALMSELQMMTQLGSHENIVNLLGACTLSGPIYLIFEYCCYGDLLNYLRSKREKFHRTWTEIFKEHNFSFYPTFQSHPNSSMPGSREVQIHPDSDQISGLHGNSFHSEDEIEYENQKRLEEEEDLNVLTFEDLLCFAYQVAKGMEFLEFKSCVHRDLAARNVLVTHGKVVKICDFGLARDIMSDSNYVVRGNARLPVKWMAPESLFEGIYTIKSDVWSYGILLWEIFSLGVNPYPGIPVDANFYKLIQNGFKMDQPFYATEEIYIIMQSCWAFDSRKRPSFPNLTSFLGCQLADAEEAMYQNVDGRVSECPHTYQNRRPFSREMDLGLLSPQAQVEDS
# Summary of the method: as §1
# kinases [3] = target: T3, kinases (Homo sapiens, UniProt P36888, N841I)
# T3 construct: purchased Eurofins/DiscoveRx; host or cells: E. coli BL21-derived host (T7 phage display) for most kinases; HEK-293 for the rest
# T3 sequence (P36888 27-993 N841I): T2 sequence (P36888 27-993 K663Q) with Q637K, N815I
# Summary of the method: as §1
# kinases [4] = target: T4, kinases (Homo sapiens, UniProt P00519, F317I)
# T4 construct: purchased Eurofins/DiscoveRx; host or cells: E. coli BL21-derived host (T7 phage display) for most kinases; HEK-293 for the rest
# Summary of the method: as §1
# kinases [5] = target: T5, kinases (Homo sapiens, UniProt P00533, G719S)
# T5 construct: purchased Eurofins/DiscoveRx; host or cells: E. coli BL21-derived host (T7 phage display) for most kinases; HEK-293 for the rest
# Summary of the method: as §1
# kinases [6] = target: T6, kinases (Homo sapiens, UniProt P07949, V804L)
# T6 construct: purchased Eurofins/DiscoveRx; host or cells: E. coli BL21-derived host (T7 phage display) for most kinases; HEK-293 for the rest
# Summary of the method: as §1
# [7] = target ABL1(F317I)-nonphosphorylated; 1 μM
# [8] = target ABL1(F317I)-phosphorylated; 1 μM
# [9] = 1 μM; target ABL1(F317I)-nonphosphorylated
# [10] = 1 μM; target ABL1(F317I)-phosphorylated
# T4 sequence (P00519 whole entry F317I): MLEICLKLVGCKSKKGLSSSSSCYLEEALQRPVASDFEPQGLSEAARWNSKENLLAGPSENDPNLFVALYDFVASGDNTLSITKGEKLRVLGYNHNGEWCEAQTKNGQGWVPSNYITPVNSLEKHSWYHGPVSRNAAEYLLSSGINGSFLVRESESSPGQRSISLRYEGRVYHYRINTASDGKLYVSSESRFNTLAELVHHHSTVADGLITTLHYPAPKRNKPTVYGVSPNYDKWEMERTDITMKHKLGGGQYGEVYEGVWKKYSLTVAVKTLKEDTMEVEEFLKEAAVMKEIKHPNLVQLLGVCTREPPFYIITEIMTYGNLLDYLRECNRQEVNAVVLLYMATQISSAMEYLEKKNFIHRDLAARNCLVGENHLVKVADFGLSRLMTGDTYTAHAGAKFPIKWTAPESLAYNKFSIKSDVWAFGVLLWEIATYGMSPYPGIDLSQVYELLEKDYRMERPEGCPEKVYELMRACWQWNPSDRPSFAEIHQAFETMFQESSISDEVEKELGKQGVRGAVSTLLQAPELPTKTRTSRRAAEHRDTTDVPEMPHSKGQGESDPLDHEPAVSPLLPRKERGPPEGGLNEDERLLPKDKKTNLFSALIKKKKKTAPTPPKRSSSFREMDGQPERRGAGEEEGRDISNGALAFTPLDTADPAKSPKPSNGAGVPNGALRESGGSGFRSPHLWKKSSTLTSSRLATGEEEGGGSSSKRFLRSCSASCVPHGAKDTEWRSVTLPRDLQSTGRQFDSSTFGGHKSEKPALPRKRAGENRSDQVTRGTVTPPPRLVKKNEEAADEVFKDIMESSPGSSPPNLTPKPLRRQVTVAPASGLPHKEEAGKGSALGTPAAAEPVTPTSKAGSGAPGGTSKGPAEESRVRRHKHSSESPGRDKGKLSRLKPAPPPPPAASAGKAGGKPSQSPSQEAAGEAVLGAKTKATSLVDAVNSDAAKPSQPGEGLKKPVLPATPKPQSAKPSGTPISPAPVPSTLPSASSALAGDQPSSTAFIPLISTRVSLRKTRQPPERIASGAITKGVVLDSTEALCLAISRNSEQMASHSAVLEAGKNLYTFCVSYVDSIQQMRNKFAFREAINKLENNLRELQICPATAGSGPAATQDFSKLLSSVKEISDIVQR
# T6 sequence (P07949 29-1114 V804L): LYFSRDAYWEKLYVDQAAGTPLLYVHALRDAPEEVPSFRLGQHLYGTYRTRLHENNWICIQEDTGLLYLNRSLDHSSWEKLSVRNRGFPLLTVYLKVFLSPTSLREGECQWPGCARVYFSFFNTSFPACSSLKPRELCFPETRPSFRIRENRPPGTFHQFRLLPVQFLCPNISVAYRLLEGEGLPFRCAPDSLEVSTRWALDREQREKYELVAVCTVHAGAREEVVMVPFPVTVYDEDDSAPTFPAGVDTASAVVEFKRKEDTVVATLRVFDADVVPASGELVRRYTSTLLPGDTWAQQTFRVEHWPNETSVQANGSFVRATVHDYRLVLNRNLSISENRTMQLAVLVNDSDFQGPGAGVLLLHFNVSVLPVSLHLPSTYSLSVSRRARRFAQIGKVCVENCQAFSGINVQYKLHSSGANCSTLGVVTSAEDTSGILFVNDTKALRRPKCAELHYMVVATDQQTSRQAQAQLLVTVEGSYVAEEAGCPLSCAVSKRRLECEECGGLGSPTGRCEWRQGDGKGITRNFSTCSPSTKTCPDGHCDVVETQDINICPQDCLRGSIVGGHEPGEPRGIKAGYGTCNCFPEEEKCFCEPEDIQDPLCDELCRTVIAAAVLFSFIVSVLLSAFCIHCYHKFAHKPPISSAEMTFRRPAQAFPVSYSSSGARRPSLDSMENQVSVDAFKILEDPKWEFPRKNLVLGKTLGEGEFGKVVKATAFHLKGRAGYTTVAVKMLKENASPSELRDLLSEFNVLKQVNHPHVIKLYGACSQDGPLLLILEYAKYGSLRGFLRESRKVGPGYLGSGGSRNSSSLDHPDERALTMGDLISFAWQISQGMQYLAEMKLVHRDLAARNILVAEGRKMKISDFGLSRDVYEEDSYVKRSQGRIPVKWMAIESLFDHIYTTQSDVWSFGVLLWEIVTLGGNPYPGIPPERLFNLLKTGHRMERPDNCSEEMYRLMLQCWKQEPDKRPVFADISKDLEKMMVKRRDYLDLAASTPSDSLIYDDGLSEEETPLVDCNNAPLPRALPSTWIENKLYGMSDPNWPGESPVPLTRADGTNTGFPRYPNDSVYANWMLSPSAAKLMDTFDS
Compound,"% Ctrl, EGFR(G719C) (kinases [1]; target EGFR(G719C); 1 μM) [% Ctrl]","% Ctrl, FLT3(K663Q) (kinases [2]; target FLT3(K663Q); 1 μM) [% Ctrl]","% Ctrl, FLT3(N841I) (kinases [3]; target FLT3(N841I); 1 μM) [% Ctrl]","% Ctrl, ABL1(F317I)-nonphosphorylated (kinases [4]; [7]) [% Ctrl]","% Ctrl, ABL1(F317I)-phosphorylated (kinases [4]; [8]) [% Ctrl]","% Ctrl, EGFR(G719S) (kinases [5]; target EGFR(G719S); 1 μM) [% Ctrl]","% Ctrl, RET(V804L) (kinases [6]; target RET(V804L); 1 μM) [% Ctrl]","% Ctrl, EGFR(G719C) (kinases [1]; 1 μM; target EGFR(G719C)) [% Ctrl]","% Ctrl, FLT3(K663Q) (kinases [2]; 1 μM; target FLT3(K663Q)) [% Ctrl]","% Ctrl, FLT3(N841I) (kinases [3]; 1 μM; target FLT3(N841I)) [% Ctrl]","% Ctrl, ABL1(F317I)-nonphosphorylated (kinases [4]; [9]) [% Ctrl]","% Ctrl, ABL1(F317I)-phosphorylated (kinases [4]; [10]) [% Ctrl]","% Ctrl, EGFR(G719S) (kinases [5]; 1 μM; target EGFR(G719S)) [% Ctrl]","% Ctrl, RET(V804L) (kinases [6]; 1 μM; target RET(V804L)) [% Ctrl]"
"CN1CCOCCOc2cc3c(cc2Cl)NC(=O)/C3=C\c2[nH]ccc2C1=O [Ex. 143, [16a(17)Z]-19-chloro-2,5-dimethyl-6,7,9,10-tetrahydro-1H-12,14-(ethanediylidene)dipyrrolo[3,2-i:3′,4′-l][1,4,7]oxathiazacyclopentadecine-4,16(5H,15H)-dione]",100,11,5.5,46,26,94,3.5,–,–,–,–,–,–,–
"Cc1cc2c([nH]1)/C=C1\C(=O)Nc3ccc(cc31)-c1c(C)nn(C)c1COCCN(C)C2=O [Ex. 146, [3a(4)Z]-6,9,14,16-tetramethyl-10,11,13,14-tetrahydro-2H-1,17-(ethanediylidene)pyrazolo[4,3-m]dipyrrolo[3,2-f:3′,4′-i][1,4]oxazacyclopentadecine-3,8(5H,9H)-dione]",89,14,0,100,100,84,3,–,–,–,–,–,–,–
"Cc1nn(C)c2c1-c1ccc3c(c1)/C(=C/c1[nH]ccc1C(=O)N(C)CCCO2)C(=O)N3 [Ex. 150, [3a(4)Z]-9,14,16-trimethyl-10,11,13,14-tetrahydro-2H-1,17-(ethanediylidene)pyrazolo[4,3-m]dipyrrolo[3,2-f:3′,4′-i][1,4]oxazacyclopentadecine-3,8(5H,9H)-dione]",92,71,19,95,88,8,77,–,–,–,–,–,–,–
CN1CCSCCOc2cc3c(cc2Cl)NC(=O)/C3=C\c2[nH]ccc2C1=O [Ex. 153],49,1.4,0,20,37,45,6.1,–,–,–,–,–,–,–
"Cc1cc2c([nH]1)/C=C1\C(=O)Nc3ccc(cc31)-c1c(noc1C(C)C)COCCN(C)C2=O [Ex. 161, [3a(4)Z]-9-methyl-16-(propan-2-yl)-10,11-dihydro-2H,13H-1,17-(ethanediylidene)[1,2]oxazolo[4,3-m]dipyrrolo[3,2-f:3′,4′-i][1,4]oxazacyclopentadecine-3,8(5H,9H)-dione]",–,–,–,–,–,–,–,89,54,39,100,91,58,72
"CN1CCOc2cc3c(cc2Cl)NC(=O)/C3=C\c2[nH]ccc2C(=O)N(C)CC1 [Ex. 164, [16a(17)Z]-19-chloro-2,5,8-trimethyl-5,6,7,8,9,10-hexahydro-12,14-(ethanediylidene)dipyrrolo[3,2-i:3′,4′-l][1,4,7]oxadiazacyclopentadecine-4,16(1H,15H)-dione]",–,–,–,–,–,–,–,82,1.4,0,5.7,6.7,74,1.2
"Cc1cc2c([nH]1)/C=C1\C(=O)Nc3ccc(cc31)-c1cnn(C)c1OCCCN(C)C2=O [Ex. 166, [3a(4)Z]-9,14-dimethyl-9,10,11,12-tetrahydro-14H-1,17-(ethanediylidene)pyrazolo[4,3-n]dipyrrolo[3,2-g:3′,4′-j][1,5]oxazacyclopentadecine-3,8(2H,5H)-dione]",–,–,–,–,–,–,–,98,1.7,0,80,31,99,0.3
"Cc1cc2c([nH]1)/C=C1\C(=O)Nc3cc(Cl)c(cc31)SCCOCCN(C)C2=O [Ex. 169, [16a(17)Z]-19-chloro-5-methyl-6,7,9,10-tetrahydro-1H-12,14-(ethanediylidene)dipyrrolo[3,4-g:2′,3′-j][1,4,13]oxathiazacyclopentadecine-4,16(5H,15H)-dione]",–,–,–,–,–,–,–,100,2.7,0,0.6,5,88,0.2
